Holding throughout (assay type): in vivo
Data set [1] relates to Echinochloa oryzacola Vasing. Put plainly: Test Example 1: herbicidal activity, application before weed generation in submerged conditions (symbol A). The following applies: application herbicide amount 320 g/ha. The method in brief: (§1)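 Steps: alluvial soil flooded to 4 cm; weed seeds sown together; rice seedlings (2.5 leaf) transplanted; diluted emulsion applied to water surface the same day as sowing; plants grown at 25–30 °C in greenhouse; herbicidal effect rated on a 0–5 scale at 3 weeks.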

Data set [2] has as its system Scirpus juncoides. Put plainly: Test Example 1: herbicidal activity, application before weed generation in submerged conditions (symbol B). Conditions: application herbicide amount 320 g/ha. A digest of the protocol: as §1
The subject of data set [3] is transplanted rice plant. Put plainly: Test Example 1: effect on crop, application before weed generation in submerged conditions (symbol a). The following applies: application herbicide amount 320 g/ha. The method in brief:
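Rice at 2.5 leaf stage transplanted into submerged soil (4 cm depth) sown with three weed species; herbicide applied before weed emergence.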

The subject of data set [4] is Cyperus difformis. Put plainly: Test Example 3: herbicidal effect by foliage application, Wagner pot (symbol E). Conditions: application herbicide amount 320 g/ha. The method in brief: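 The compound, formulated as an emulsion and diluted with water to a predetermined rate, is applied uniformly to leaves of two-week-old seedlings growing in submerged alluvial soil at 25–30 °C. Rice is included. Each plant is assessed 3 weeks later using defined criteria.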

The subject of data set [5] is Alopecurus myosuroides. Put plainly: Test Example 4: herbicidal effect by soil treatment (symbol J). The following applies: application herbicide amount 320 g/ha. A digest of the protocol:
(§2)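 Seeds were sown in sterilized diluvial soil, covered with about 1.5 cm of soil, and the soil surface was sprayed with a water-diluted emulsion of the compound at a predetermined rate. Plants grew in a greenhouse at 25° C. to 30° C.; effects were scored visually 3 weeks after application.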

The subject of data set [6] is Stellaria media. Put plainly: Test Example 4: herbicidal effect by soil treatment (symbol P). The following applies: application herbicide amount 320 g/ha. The method in brief: as §2
Data set [7] deals with corn. Put plainly: Test Example 4: effect on crop by soil treatment (symbol c). Conditions: application herbicide amount 320 g/ha. A digest of the protocol: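 Soil-treatment setup: crop and weed seeds were spot-sown into sterilized diluvial soil, then buried beneath approximately 1.5 cm of it, and the boxes were housed in a 25–30° C. greenhouse.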
The test system of data set [8] is soybean. Put plainly: Test Example 4: effect on crop by soil treatment (symbol d). Conditions: application herbicide amount 320 g/ha. A digest of the protocol: (§3)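 Plants grew in a 25° C. to 30° C. greenhouse after spot-sowing of seeds, including beet, rapeseed, wheat and rice, into sterilized diluvial soil under roughly 1.5 cm of cover soil.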
Data set [9] deals with rice. Put plainly: Test Example 4: effect on crop by soil treatment (symbol b). Conditions: application herbicide amount 320 g/ha. The method in brief: as §3
Data set [10] has as its system wheat. Put plainly: Test Example 4: effect on crop by soil treatment (symbol e). The following applies: application herbicide amount 320 g/ha. The method in brief: as §3
The test system of data set [11] is Setaria viridis. Put plainly: Test Example 5: herbicidal effect by foliage application, plastic box (symbol G). Conditions: 320 g/ha, 3 weeks after application. The method in brief:
(§4)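 Greenhouse foliar test: seedlings at 14 days, grown 25° C. to 30° C. in sterilized diluvial soil; compound applied as an aqueous dilution of an emulsion; response read 3 weeks after spraying.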

Data set [12] concerns Alopecurus myosuroides. Put plainly: Test Example 5: herbicidal effect by foliage application, plastic box (symbol J). The following applies: 320 g/ha, 3 weeks after application. The method in brief:
as §4

Data set [13] deals with Lolium multiflorum Lam. Put plainly: Test Example 5: herbicidal effect by foliage application, plastic box (symbol K). Conditions: 320 g/ha, 3 weeks after application. The method in brief: as §4
For data set [14], the system named is Galium spurium. Put plainly: Test Example 5: herbicidal effect by foliage application, plastic box (symbol Q). Conditions: 320 g/ha, 3 weeks after application. A digest of the protocol: as §4

On to `COC(=O)C(C(=O)C1CC1)C1CC(O)=C(c2c(C)cc(C)cc2C)C1=O` (centres unmarked) [2-014], for which, in data set [1], the “Herbicidal effect grade, A: Echinochloa oryzacola Vasing.” value was 4 (Herbicidal ratio of 70% or higher and lower than 90%). The “Herbicidal effect grade, B: Scirpus juncoides” value (from here on “Herbicidal effect grade, B”) in data set [2] is 3 (Herbicidal ratio of 40% or higher and lower than 70%). In data set [3], the “Effect grade on crop, a: transplanted rice plant” value (“Effect grade on crop” for short) is 1 (Herbicidal ratio of 5% or higher and lower than 20%). Also, in [4], the “herbicidal effect on E, grade 0-5” value is reported as 5 (Herbicidal ratio of 90% or more (almost completely withered)). Further, the “J: Alopecurus myosuroides, herbicidal effect grade” value (“J: Alopecurus myosuroides” below) in data set [5] is 2 (Herbicidal ratio of 20% or higher and lower than 40%); in data set [12], 5 (Herbicidal ratio of 90% or more (almost completely withered)). In addition, the “P: Stellaria media, herbicidal effect grade” value (“P: Stellaria media” for short) in [6] is 0 (Herbicidal ratio of 5% or lower (almost no effect)). Further, the “c: corn, effect on crop grade” value in data set [7] is 3 (Herbicidal ratio of 40% or higher and lower than 70%). Also, in data set [8], the “d: soybean, effect on crop grade” value is given as 0 (Herbicidal ratio of 5% or lower (almost no effect)). The “b: directly sowed rice plant, effect on crop grade” value (shortened to “b: directly sowed rice plant”) in [9] is 5 (Herbicidal ratio of 90% or more (almost completely withered)). Besides, the “e: wheat, effect on crop grade” value in [10] is 0 (Herbicidal ratio of 5% or lower (almost no effect)). For the same compound, the “G: Setaria viridis, herbicidal effect grade” value (shortened to “G: Setaria viridis”) in data set [11] is 5 (Herbicidal ratio of 90% or more (almost completely withered)). In addition, the “K: Lolium multiflorum Lam., herbicidal effect grade” value in data set [13] is given as 5 (Herbicidal ratio of 90% or more (almost completely withered)). Besides, the “Q: Galium spurium, herbicidal effect grade” value (“Q: Galium spurium” below) in [14] is listed as 0 (Herbicidal ratio of 5% or lower (almost no effect)).
Take `Cc1cc(C)c(C2=C(O)CC(CC(=O)Cc3ccccc3)C2=O)c(C)c1` (centres unmarked) [2-015]: the “Herbicidal effect grade, A: Echinochloa oryzacola Vasing.” value in [1] is 0 (Herbicidal ratio of 5% or lower (almost no effect)). Also, the “Herbicidal effect grade, B” value in data set [2] was 4 (Herbicidal ratio of 70% or higher and lower than 90%). Besides, the “Effect grade on crop” value in data set [3] was 0 (Herbicidal ratio of 5% or lower (almost no effect)). In data set [4], the “herbicidal effect on E, grade 0-5” value is on record as 0 (Herbicidal ratio of 5% or lower (almost no effect)). In addition, the “J: Alopecurus myosuroides” value in data set [5] is 2 (Herbicidal ratio of 20% or higher and lower than 40%); in data set [12], 5 (Herbicidal ratio of 90% or more (almost completely withered)). In data set [6], the “P: Stellaria media” value is reported as 0 (Herbicidal ratio of 5% or lower (almost no effect)). The “c: corn, effect on crop grade” value in data set [7] is recorded as 0 (Herbicidal ratio of 5% or lower (almost no effect)). The “d: soybean, effect on crop grade” value in data set [8] is reported as 0 (Herbicidal ratio of 5% or lower (almost no effect)). For the same compound, the “b: directly sowed rice plant” value in data set [9] is 4 (Herbicidal ratio of 70% or higher and lower than 90%). Moreover, the “e: wheat, effect on crop grade” value in data set [10] is reported as 0 (Herbicidal ratio of 5% or lower (almost no effect)). For the same compound, in data set [11], the “G: Setaria viridis” value is recorded as 5 (Herbicidal ratio of 90% or more (almost completely withered)). Also, in data set [13], the “K: Lolium multiflorum Lam., herbicidal effect grade” value is listed as 5 (Herbicidal ratio of 90% or more (almost completely withered)). The “Q: Galium spurium” value in data set [14] is reported as 0 (Herbicidal ratio of 5% or lower (almost no effect)).
Take `CC(=O)CC1CC(OC(=O)C(C)(C)C)=C(c2c(C)cc(C)cc2C)C1=O` (centres unmarked) [2-018]: the “Herbicidal effect grade, A: Echinochloa oryzacola Vasing.” value in data set [1] is 5 (Herbicidal ratio of 90% or more (almost completely withered)). Also, in [2], the “Herbicidal effect grade, B” value was 2 (Herbicidal ratio of 20% or higher and lower than 40%). Also, the “Effect grade on crop” value in data set [3] was 4 (Herbicidal ratio of 70% or higher and lower than 90%). The “herbicidal effect on E, grade 0-5” value in data set [4] was 5 (Herbicidal ratio of 90% or more (almost completely withered)). The “J: Alopecurus myosuroides” value in data set [5] was 3 (Herbicidal ratio of 40% or higher and lower than 70%); in data set [12], 1 (Herbicidal ratio of 5% or higher and lower than 20%). The “P: Stellaria media” value in [6] is reported as 0 (Herbicidal ratio of 5% or lower (almost no effect)). Further, the “c: corn, effect on crop grade” value in data set [7] was 2 (Herbicidal ratio of 20% or higher and lower than 40%). For the same compound, the “d: soybean, effect on crop grade” value in data set [8] is reported as 0 (Herbicidal ratio of 5% or lower (almost no effect)). In addition, the “b: directly sowed rice plant” value in [9] was 5 (Herbicidal ratio of 90% or more (almost completely withered)). Moreover, in data set [10], the “e: wheat, effect on crop grade” value was 0 (Herbicidal ratio of 5% or lower (almost no effect)). For the same compound, the “G: Setaria viridis” value in data set [11] was 1 (Herbicidal ratio of 5% or higher and lower than 20%). The “K: Lolium multiflorum Lam., herbicidal effect grade” value in [13] is 4 (Herbicidal ratio of 70% or higher and lower than 90%). Moreover, in data set [14], the “Q: Galium spurium” value is on record as 0 (Herbicidal ratio of 5% or lower (almost no effect)).
Turning to `CCCC(=O)CC1CC(O)=C(c2c(C)cc(C)cc2C)C1=O` (centres unmarked) [2-021], in data set [1], the “Herbicidal effect grade, A: Echinochloa oryzacola Vasing.” value was 4 (Herbicidal ratio of 70% or higher and lower than 90%). The “Herbicidal effect grade, B” value in [2] was 4 (Herbicidal ratio of 70% or higher and lower than 90%). In data set [3], the “Effect grade on crop” value was 5 (Herbicidal ratio of 90% or more (almost completely withered)). Also, the “herbicidal effect on E, grade 0-5” value in data set [4] was 3 (Herbicidal ratio of 40% or higher and lower than 70%). Moreover, the “J: Alopecurus myosuroides” value in data set [5] and in data set [12] was 5 (Herbicidal ratio of 90% or more (almost completely withered)) throughout. Further, the “P: Stellaria media” value in [6] is given as 0 (Herbicidal ratio of 5% or lower (almost no effect)). For the same compound, the “c: corn, effect on crop grade” value in data set [7] was 1 (Herbicidal ratio of 5% or higher and lower than 20%). Moreover, the “d: soybean, effect on crop grade” value in [8] is 0 (Herbicidal ratio of 5% or lower (almost no effect)). Besides, in data set [9], the “b: directly sowed rice plant” value is 5 (Herbicidal ratio of 90% or more (almost completely withered)). Besides, the “e: wheat, effect on crop grade” value in [10] was 0 (Herbicidal ratio of 5% or lower (almost no effect)). Besides, in [11], the “G: Setaria viridis” value was 4 (Herbicidal ratio of 70% or higher and lower than 90%). Further, the “K: Lolium multiflorum Lam., herbicidal effect grade” value in data set [13] was 5 (Herbicidal ratio of 90% or more (almost completely withered)). Further, the “Q: Galium spurium” value in data set [14] is 0 (Herbicidal ratio of 5% or lower (almost no effect)).
